Like-named read-outs stand apart in the source and are kept apart here.
Test system: Mycosphaerella graminicola; Anamorph: Septoria tritici; Bayer Code SEPTTR
Assay: Leaf blotch of wheat, foliar fungicide treatment, one day protectant (1DP) or three day curative (3DC)
Assay type: in vivo, Septoria tritici on wheat plants (variety Yuma)
Details: Zymoseptoria tritici, rating of percent disease control
[1] = 24 h, one day protectant (1DP), read-out: SETTTR 1DP 25 ppm
[2] = 24 h, one day protectant (1DP), read-out: SEPTTR 1DP 100 ppm
[3] = 72 h, three day curative (3DC), read-out: SEPTTR 3DC 25 ppm
[4] = 72 h, three day curative (3DC), read-out: SEPTTR 3DC 100 ppm

Row | SMILES | pest or weed control at 25 ppm [1] | pest or weed control at 100 ppm [2] | pest or weed control at 25 ppm [3] | pest or weed control at 100 ppm [4]
1 | Cc1ccc(COc2ncc(F)c(/N=C3\CCCCN3C)n2)cc1 [Compound 377] | 76 to 100% | 76 to 100% | 51 to 75% | 76 to 100%
2 | Nc1nc(Oc2ccc(Cl)c3ccccc23)ncc1F [Compound 378] | 51 to 75% | 76 to 100% | 76 to 100% | 76 to 100%
3 | CCOCNc1nc(OC(C)c2ccc(F)cc2)ncc1F (stereo not shown) [Compound 379] | 76 to 100% | 76 to 100% | 51 to 75% | 76 to 100%
4 | NN(Cc1ccccc1)c1nc(OCc2ccc(F)cc2)ncc1F [Compound 380] | 76 to 100% | 76 to 100% | 0 to 25% | 76 to 100%
5 | Nc1nc(OCc2cccc3ccsc23)ncc1F [Compound 381] | 76 to 100% | 76 to 100% | 76 to 100% | 76 to 100%
6 | CC(Oc1ncc(F)c(N)n1)c1c(Cl)ccc(Cl)c1Cl (stereo not shown) [Compound 382] | 76 to 100% | 76 to 100% | 0 to 25% | 76 to 100%
7 | Nc1nc(OCc2ccccc2Cn2cncn2)ncc1F [Compound 383] | 0 to 25% | 0 to 25% | 26 to 50% | 0 to 25%
8 | CC(C)(C)Oc1cccc(COc2ncc(F)c(N)n2)c1 [Compound 385] | 76 to 100% | 76 to 100% | 76 to 100% | 76 to 100%
9 | COc1ccc(COc2ncc(F)c(N)n2)cc1C [Compound 386] | 76 to 100% | 76 to 100% | 76 to 100% | 76 to 100%
10 | CC(C)c1ccc(C(C)Oc2ncc(F)c(N)n2)cc1 (stereo not shown) [Compound 387] | 76 to 100% | 76 to 100% | 76 to 100% | 76 to 100%
11 | COCCOC(=O)Oc1ncc(F)c(/N=C/N(C)C)n1 [Compound 389] | 76 to 100% | 76 to 100% | 76 to 100% | 76 to 100%
12 | ONc1nc(OCc2ccccc2)ncc1F [Compound 390] | 76 to 100% | 76 to 100% | 76 to 100% | 76 to 100%
13 | Nc1nc(OCc2ccccc2I)ncc1F [Compound 391] | 51 to 75% | 76 to 100% | 26 to 50% | 76 to 100%
14 | Nc1nc(OCc2ccoc2)ncc1F [Compound 392] | 76 to 100% | 76 to 100% | 76 to 100% | 76 to 100%
15 | CC(Oc1ncc(F)c(N)n1)c1ccc([N+](=O)[O-])cc1 (stereo not shown) [Compound 393] | 26 to 50% | 76 to 100% | 26 to 50% | 76 to 100%
16 | O=C(Cc1ccccc1)Nc1nc(OCc2ccc(F)cc2)ncc1F [Compound 394] | 76 to 100% | 76 to 100% | 76 to 100% | 76 to 100%
17 | CN(N)c1nc(OCc2ccccc2)ncc1F [Compound 395] | 0 to 25% | 0 to 25% | 26 to 50% | 51 to 75%
18 | Cn1nc(COc2ncc(F)c(N)n2)c2ccccc21 [Compound 396] | 76 to 100% | 76 to 100% | 76 to 100% | 76 to 100%
19 | CNN(C)c1nc(OCc2ccc(F)cc2)ncc1F [Compound 397] | 0 to 25% | 0 to 25% | 0 to 25% | 0 to 25%
20 | Cc1ccc(COc2ncc(F)c(NC(=O)NCc3ccccc3F)n2)cc1 [Compound 398] | 0 to 25% | 0 to 25% | 0 to 25% | 26 to 50%
21 | Cc1c(N)cccc1COc1ncc(F)c(N)n1 [Compound 399] | 51 to 75% | 76 to 100% | 76 to 100% | 76 to 100%
22 | CCOc1ccc(COc2ncc(F)c(N)n2)cc1 [Compound 400] | 76 to 100% | 76 to 100% | 76 to 100% | 76 to 100%
23 | Nc1nc(OCc2ccnc3ccccc23)ncc1F [Compound 401] | 76 to 100% | 76 to 100% | 76 to 100% | 76 to 100%

Row | SMILES | pest or weed control at 25 ppm [1] | pest or weed control at 100 ppm [2] | pest or weed control at 25 ppm [3] | pest or weed control at 100 ppm [4]
24 | Cc1ccc(COc2ncc(F)c(/N=C/N3CCOCC3)n2)cc1 [Compound 402] | 76 to 100% | 76 to 100% | 76 to 100% | 76 to 100%
25 | CCC(C)C(Oc1ncc(F)c(N)n1)c1ccc(F)cc1 (stereo not shown) [Compound 403] | 76 to 100% | 76 to 100% | 26 to 50% | 76 to 100%
26 | Nc1nc(OCc2cc(Cl)cc(Cl)c2)ncc1F [Compound 404] | 76 to 100% | 76 to 100% | 76 to 100% | 76 to 100%
27 | COc1ccccc1COc1ncc(F)c(/N=C/N(C)C)n1 [Compound 405] | 76 to 100% | 76 to 100% | 76 to 100% | 76 to 100%
28 | Nc1nc(OC(c2ccccc2)c2ccc(F)cc2)ncc1F (stereo not shown) [Compound 406] | 76 to 100% | 76 to 100% | 76 to 100% | 76 to 100%
29 | COc1cccc(COc2ncc(F)c(N3CCCCC3)n2)c1 [Compound 407] | 0 to 25% | 0 to 25% | 0 to 25% | 0 to 25%
30 | Nc1nc(OCc2ccco2)ncc1F [Compound 409] | 76 to 100% | 76 to 100% | 76 to 100% | 76 to 100%
31 | Cn1ccc(COc2ncc(F)c(NCOCc3ccccc3)n2)n1 [Compound 412] | 0 to 25% | 76 to 100% | 0 to 25% | 51 to 75%
32 | Nc1nc(OC(=O)c2ccccc2)ncc1F [Compound 413] | 76 to 100% | 76 to 100% | 76 to 100% | 76 to 100%
33 | COc1ccccc1COc1ncc(F)c(NC(=O)OCc2ccccc2)n1 [Compound 415] | 51 to 75% | 76 to 100% | 76 to 100% | 76 to 100%
34 | COc1cccc(COc2ncc(F)c(NCc3ccccc3F)n2)c1 [Compound 416] | 0 to 25% | 0 to 25% | 0 to 25% | 26 to 50%
35 | CN(C)/C=N/c1nc(OC(=O)C2CC2)ncc1F [Compound 417] | 76 to 100% | 76 to 100% | 76 to 100% | 76 to 100%
36 | COCCOC(=O)Nc1nc(OCc2ccc(C)cc2)ncc1F [Compound 419] | 76 to 100% | 76 to 100% | 76 to 100% | 76 to 100%
37 | CC(C)C(=O)Oc1ncc(F)c(/N=C/N(C)C)n1 [Compound 420] | 76 to 100% | 76 to 100% | 76 to 100% | 76 to 100%
38 | CN1CCCC/C1=N\c1nc(OCc2ccccc2)ncc1F [Compound 421] | 76 to 100% | 76 to 100% | 76 to 100% | 76 to 100%
39 | Cc1ccc(C(=O)Oc2ncc(F)c(/N=C/N(C)C)n2)c(C)c1 [Compound 422] | 76 to 100% | 76 to 100% | 76 to 100% | 76 to 100%
40 | Nc1nc(OCc2cccc(O)c2)ncc1F [Compound 423] | 0 to 25% | 0 to 25% | 0 to 25% | 0 to 25%
41 | CC(Oc1ncc(F)c(/N=C2\CCCCN2C)n1)c1ccc(F)cc1 (stereo not shown) [Compound 424] | 51 to 75% | 76 to 100% | 51 to 75% | 76 to 100%
42 | CN(C)/C=N/c1nc(OC(=O)Oc2cccc(C(F)(F)F)c2)ncc1F [Compound 425] | 76 to 100% | 76 to 100% | 76 to 100% | 76 to 100%
43 | C/C(=N\Oc1ncc(F)c(/N=C/N(C)C)n1)c1ccccc1 [Compound 427] | 76 to 100% | 76 to 100% | 76 to 100% | 76 to 100%
44 | Nc1nc(OC(=O)c2snc(Cl)c2Cl)ncc1F [Compound 428] | 51 to 75% | 51 to 75% | 26 to 50% | 76 to 100%
45 | Nc1nc(OCc2cnc(Cl)s2)ncc1F [Compound 429] | 76 to 100% | 76 to 100% | 76 to 100% | 76 to 100%
46 | Nc1cccc(COc2ncc(F)c(N)n2)c1 [Compound 430] | 76 to 100% | 76 to 100% | 76 to 100% | 76 to 100%

From US9204653B2, “5-fluoro pyrimidine derivatives” (DOW AGROSCIENCES LLC, priority 2008, dated 2015)
